Counter-ions that a name gives are not always drawn.
Assays:
[1] = biological target: T1, FTH ferritin (Homo sapiens, UniProt P02794); test: one-step process incorporation of DOX into FTH ferritin; assay type: physicochemical; conditions: for incorporation efficiency of the reagent: FTH ferritin 1 mg/mL; for number of molecules of DOX incorporated into one molecule of FTH ferritin: presumed, average
T1 construct: made in house; host or cells: Escherichia coli BL21 (DE3), plasmid pET20-FTH
Protocol: (§1) In this reaction, an acetate buffer was used for pH 3, 4, 5 and 6, while Tris-HCl buffer was used for pH 7, 8 and 9. After the standing, 0.5 mL of water was added to the resulting solution. After the resulting solution was centrifuged (at 15,000 rpm for one minute), the supernatant was injected into a desalting column PD-10 (Sephadex G-25 filled product, GE Healthcare Inc.) equilibrated with 10 mM Tris-HCl buffer (pH 8) to separate the protein from a reagent that was not encapsulated. Whole amount (3.5 mL) of the resulting solution was concentrated to 0.1 mL by centrifugal ultrafiltration using Vivaspin 20-100K (GE Healthcare Inc.), and then absorbances at 280 nm and 480 nm were measured using spectrophotometer (DU-800, Beckman Coulter Inc.).
as §1, with “After” for “In this reaction, an acetate buffer was used for pH 3, 4, 5 and 6, while Tris-HCl buffer was used for pH 7, 8 and 9. After”, “into the” for “into a”
After the standing, 0.5 mL water was added to the resulting solution. After the resulting solution was centrifuged (at 15,000 rpm for one minute), the supernatant was injected into the desalting column PD-10 (Sephadex G-25 filled product, GE Healthcare Inc.) equilibrated with 10 mM Tris-HCl buffer (pH 8) to separate the protein from a reagent that was not encapsulated. Whole amount (3.5 mL) of the resulting solution was concentrated by centrifugal ultrafiltration using Vivaspin 20-100K (GE Healthcare Inc.). Glycine-HCl buffer (pH 2.3) was added to the resulting solution to achieve a final concentration of 100 mM, then a volume was controlled to 0.2 mL. […] The absorbance at 480 nm was measured using spectrophotometer (DU-800, Beckman Coulter Inc.) for the resulting solution in order to determine the concentration of DOX. The concentration of protein in the solution was determined using the protein assay CBB solution (Nacalai Tesque, Inc.) as well as bovine albumin as a standard.
After the standing, 0.5 mL water was added to the resulting solution. After the resulting solution was centrifuged (at 15,000 rpm for one minute), the supernatant was injected into the desalting column PD-10 (Sephadex G-25 filled product, GE Healthcare Inc.) equilibrated with 10 mM Tris-HCl buffer (pH 8) to separate the protein from a reagent that was not encapsulated. Whole amount (3.5 mL) of the resulting solution was concentrated by centrifugal ultrafiltration using Vivaspin 20-100K (GE Healthcare Inc.). Glycine-HCl buffer (pH 2.3) was added to the resulting solution to achieve a final concentration of 100 mM, then a volume was controlled to 0.5 mL. The absorbance at 480 nm was measured using spectrophotometer (DU-800, Beckman Coulter Inc.) for the resulting solution in order to determine the concentration of DOX. The concentration of protein in the solution was determined using the protein assay CBB solution (Nacalai Tesque, Inc.) as well as bovine albumin as a standard.

[2] = pKa of the organic compound; assay type: physicochemical; conditions: average of plural pKa values
Source text: The pKa of the organic compound can be determined by a neutralization titration method (Kagaku Binran Kiso-hen I and II (Handbook of Chemistry, basic I and II) (Ver. 4) edited by The Chemical Society of Japan, Maruzen Publishing, 1993). […] When the organic compound has a single pKa value, the value is employed as the pKa of the organic compound.

[3] = biological target: T1, FTH ferritin; test: estimation of state of DOX in FTH ferritin internal cavity; conditions: 165 molecules of DOX per molecule of FTH ferritin, cavity volume 0.18 zL
Source text: Ferritin has a cage shape having a diameter of 12 nm, and the diameter of an internal cavity thereof is 7 nm. Ideally, the volume of the internal cavity is 0.18 zL (zL: Zepto little, 10 to the negative power of 21). […] In view of this, it is necessary to disassemble ferritin once to allow DOX to be released in advance for quantification of DOX incorporated in ferritin by means of spectroscopic evaluation.

[4] = biological target: T2, FTL ferritin (Homo sapiens, UniProt P02792); test: one-step incorporation of DOX into FTL ferritin; assay type: physicochemical; conditions: pH 8, 50° C., 60 minutes, DOX 0.3 mg/L
T2 construct: made in house; host or cells: Escherichia coli BL21 (DE3), plasmid pET20-FTL
T2 sequence (P02792 whole entry): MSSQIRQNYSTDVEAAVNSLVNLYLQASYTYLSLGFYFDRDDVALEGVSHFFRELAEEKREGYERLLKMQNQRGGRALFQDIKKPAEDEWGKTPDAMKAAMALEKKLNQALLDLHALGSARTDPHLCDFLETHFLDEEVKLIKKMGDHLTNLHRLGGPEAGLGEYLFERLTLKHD
Protocol: The incorporation of the reagent into L chain reagent was carried out using the one-step process. Total synthesis was carried out for a DNA encoding a human-derived ferritin L chain (FTL (SEQ ID NO: 2)) monomer. PCR was carried out using the synthesized DNA as a template as well as the following primers: 5′-[…]-3′ (SEQ ID NO: 234) and 5′-[…]-3′ (SEQ ID NO: 235). PCR was carried out using pET20 (Merck KGaA) as a template as well as the following primers: 5′-[…]-3′ (SEQ ID NO: 5) and 5′-[…]-3′ (SEQ ID NO: 6). The resulting PCR products were purified using Wizard DNA Clean-Up System (Promega Corporation), and then subjected to In-Fusion enzyme treatment at 50° C. for 15 minutes using In-Fusion HD Cloning Kit (Takara Bio Inc.) to construct an expression plasmid (pET20-FTL) carrying a gene encoding FTL monomer.
DOX was mixed with 1 mL of 50 mM Tris-HCl buffer (pH 8) that contains each mutate FTL ferritin at a final concentration of 1 mg/mL, to achieve a final concentration of 0.3 mg/L, and then the resulting solutions were left to stand at 50° C. for 60 minutes. […] The concentration of contained protein was determined using the protein assay CBB solution (Nacalai Tesque, Inc.) as well as bovine albumin as a standard. The DOX concentration was determined based on analysis of the absorbance at 480 nm.

[5] = pH 9, 60° C., after 30 minutes, DOX 0.1 mg/mL

T1 sequence (P02794 whole entry): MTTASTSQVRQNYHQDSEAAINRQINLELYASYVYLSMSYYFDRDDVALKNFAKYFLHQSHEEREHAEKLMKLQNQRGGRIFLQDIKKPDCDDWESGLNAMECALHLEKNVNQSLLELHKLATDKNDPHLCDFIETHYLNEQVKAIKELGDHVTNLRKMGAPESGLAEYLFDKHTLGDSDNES

COc1cccc2c1C(=O)c1c(O)c3c(c(O)c1C2=O)C[C@@](O)(C(=O)CO)C[C@@H]3OC1CC(N)C(O)C(C)O1 (some centres unmarked) [DOX, Doxorubicin hydrochloride]
incorporation efficiency of the reagent ([1]; pH 6 or less, 25° C., 60 minutes, DOX 0.1 mg/mL): ≤ 0.5 ° (wt) | incorporation efficiency of the reagent ([1]; pH 9, 25° C., 60 minutes, DOX 0.1 mg/mL): ≥ 1 % (wt) | incorporation efficiency of the reagent ([1]; pH 9, 60° C., 60 minutes, DOX 0.1 mg/mL): ≥ 5 % (wt) | number of molecules of DOX incorporated into one molecule of FTH ferritin ([1]; pH 9, 60° C., 60 minutes, at maximum incorporation): 165 | incorporation efficiency of the reagent at the maximum ([1]; pH 9, 60° C., 60 minutes, concentration ratio of FTH ferritin to DOX varied (10:3 or less)): 16 % (wt) | maximum incorporation efficiency of the reagent [1, 5]: 5 % (wt) | number of molecules of DOX incorporated into one molecule of FTH ferritin [1, 5]: 50 | rate of DOX incorporation ([1]; pH 9, 60° C., until 30 minutes): 1.7 mg-DOX/minute per gram of ferritin | pKa [2]: 8.42 | concentration of DOX in the internal cavity of ferritin [3]: 890 g/L | incorporation efficiency of the reagent [4]: 7.0 % (wt)

From patent publication US20210253651A1, “METHOD FOR PRODUCING ORGANIC COMPOUND-ENCAPSULATING FERRITIN” (Ajinomoto Co., Inc., priority 2018, published 2021)
